Active and inactive are the calls of the source. The rule behind the calls is not given here.
Legend:
HT-1080 [1] = assay: Effect on Akt level in human HT1080 cells assessed as Akt level at 10 uM incubated for 24 hrs by immunoblot assay (reference value: 1); assay type: cell-based; conditions: ht-1080, 24 h
[2] = molecular target: T1, Serine/threonine-protein kinase AKT (Homo sapiens) (UniProt P31751+Q9Y243+P31749); assay: Inhibition of Akt signaling pathway in human HT1080 cells assessed as fold change in phosphorylated Akt level at 10 uM incubated for 24 hrs by immunoblot assay (reference value: 1); assay type: cell-based; conditions: HT-1080
T1 sequence (P31749 whole entry, looked up): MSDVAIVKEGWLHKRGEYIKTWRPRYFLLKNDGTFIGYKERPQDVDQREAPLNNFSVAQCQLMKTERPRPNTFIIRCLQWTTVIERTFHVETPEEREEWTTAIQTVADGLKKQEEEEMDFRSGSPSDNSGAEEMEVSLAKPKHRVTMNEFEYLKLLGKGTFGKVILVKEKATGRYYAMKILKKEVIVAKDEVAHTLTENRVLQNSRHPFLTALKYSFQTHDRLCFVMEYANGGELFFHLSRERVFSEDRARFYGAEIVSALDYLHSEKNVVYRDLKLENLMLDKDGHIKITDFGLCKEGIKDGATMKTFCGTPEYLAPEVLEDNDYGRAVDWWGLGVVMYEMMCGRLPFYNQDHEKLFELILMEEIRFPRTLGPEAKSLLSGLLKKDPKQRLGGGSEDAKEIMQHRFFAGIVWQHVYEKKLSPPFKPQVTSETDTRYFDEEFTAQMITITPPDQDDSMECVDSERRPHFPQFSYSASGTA
T1 sequence (P31751 whole entry, looked up): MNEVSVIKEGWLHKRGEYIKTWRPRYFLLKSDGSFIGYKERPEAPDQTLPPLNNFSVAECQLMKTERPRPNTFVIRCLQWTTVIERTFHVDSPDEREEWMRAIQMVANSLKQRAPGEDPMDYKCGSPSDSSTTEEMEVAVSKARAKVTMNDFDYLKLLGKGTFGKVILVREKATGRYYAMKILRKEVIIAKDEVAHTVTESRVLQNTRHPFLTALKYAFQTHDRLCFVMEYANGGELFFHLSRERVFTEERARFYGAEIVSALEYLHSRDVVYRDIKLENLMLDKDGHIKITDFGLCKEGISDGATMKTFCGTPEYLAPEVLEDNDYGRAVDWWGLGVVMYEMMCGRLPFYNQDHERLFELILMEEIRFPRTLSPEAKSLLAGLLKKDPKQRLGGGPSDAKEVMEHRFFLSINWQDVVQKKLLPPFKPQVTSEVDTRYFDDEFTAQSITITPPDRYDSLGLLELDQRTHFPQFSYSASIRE
T1 sequence (Q9Y243 whole entry, looked up): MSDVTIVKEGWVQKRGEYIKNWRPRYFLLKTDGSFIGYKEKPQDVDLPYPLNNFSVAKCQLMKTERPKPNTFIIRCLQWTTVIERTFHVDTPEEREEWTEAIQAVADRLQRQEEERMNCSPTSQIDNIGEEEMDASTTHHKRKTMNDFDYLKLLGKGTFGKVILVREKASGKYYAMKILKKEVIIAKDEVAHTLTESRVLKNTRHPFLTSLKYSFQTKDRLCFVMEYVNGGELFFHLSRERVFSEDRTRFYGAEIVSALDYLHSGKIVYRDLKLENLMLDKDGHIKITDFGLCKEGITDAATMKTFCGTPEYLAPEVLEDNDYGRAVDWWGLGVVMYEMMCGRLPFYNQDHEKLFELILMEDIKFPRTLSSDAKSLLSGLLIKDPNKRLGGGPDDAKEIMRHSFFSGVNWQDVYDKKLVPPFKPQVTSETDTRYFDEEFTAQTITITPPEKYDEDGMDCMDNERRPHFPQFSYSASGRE

A549 = assay: Antiproliferative activity against human A549 cells assessed as reduction in cell viability incubated for 72 hrs by MTT assay; assay type: functional, cell-based; conditions: A549, 72 h
A-431 = assay: Antiproliferative activity against human A431 cells assessed as reduction in cell viability incubated for 72 hrs by MTT assay; assay type: functional, cell-based; conditions: A-431, 72 h
[3] = molecular target: T1, Serine/threonine-protein kinase AKT (Homo sapiens); assay: Inhibition of Akt signaling pathway in human HT1080 cells assessed as fold change in phosphorylated 70S6K level at 10 uM incubated for 24 hrs by immunoblot assay (reference value: 1); assay type: cell-based; conditions: HT-1080
SK-MEL-28 = assay: Antiproliferative activity against human SK-MEL-28 cells assessed as reduction in cell viability incubated for 72 hrs by MTT assay; assay type: functional, cell-based; conditions: SK-MEL-28, 72 h
NEC8 = assay: Antiproliferative activity against human NEC8 cells assessed as reduction in cell viability incubated for 72 hrs by MTT assay; assay type: functional, cell-based; conditions: NEC8, 72 h
PC-3 = assay: Antiproliferative activity against human PC3 cells assessed as reduction in cell viability incubated for 72 hrs by MTT assay; assay type: functional, cell-based; conditions: PC-3, 72 h
MCF7 [4] = assay: Antiproliferative activity against human MCF7 cells assessed as reduction in cell viability incubated for 72 hrs by MTT assay; assay type: functional, cell-based; conditions: MCF7, 72 h
HT-29 = assay: Antiproliferative activity against human HT-29 cells assessed as reduction in cell viability incubated for 72 hrs by MTT assay; assay type: functional, cell-based; conditions: HT-29, 72 h
[5] = Antiproliferative activity against human ES2 cells assessed as reduction in cell viability incubated for 72 hrs by MTT assay; assay type: functional, cell-based; conditions: ES-2, 72 h
PANC-1 = assay: Antiproliferative activity against human PANC1 cells assessed as reduction in cell viability incubated for 72 hrs by MTT assay; assay type: functional, cell-based; conditions: PANC-1, 72 h
HT-1080 [6] = assay: Induction of vacuole formation in human HT1080 cells at 10 uM incubated for 24 hrs; assay type: functional, cell-based
HT-1080 [7] = assay: Antiproliferative activity against human HT1080 cells assessed as reduction in cell viability incubated for 72 hrs by MTT assay; assay type: functional, cell-based; conditions: HT-1080, 72 h
MCF7 [8] = assay: Effect on HER2 mRNA expression in human MCF7 cells at 10 uM incubated for 24 hrs by qRT-PCR analysis; assay type: functional, cell-based
MCF7 [9] = assay: Effect on HSP90 level in human MCF7 cells at 10 uM incubated for 24 hrs by immunoblotting assay (reference value: 1); assay type: ADME, cell-based; conditions: mcf7, 24 h
[10] = molecular target: Heat shock protein HSP90 (Homo sapiens) (UniProt P07900+P08238); assay: Inhibition of HSP90 chaperone activity in human HeLa cells assessed as reduction in denatured luciferase refolding at 100 uM incubated for 60 mins by luciferase refolding assay; assay type: cell-based
[11] = molecular target: T1, Serine/threonine-protein kinase AKT (Homo sapiens); assay: Inhibition of Akt signaling pathway in human HT1080 cells assessed as reduction in phosphorylated Akt level incubated for 12 hrs by immunoblot assay; assay type: cell-based; conditions: HT-1080
[12] = molecular target: T1, Serine/threonine-protein kinase AKT (Homo sapiens); assay: Inhibition of Akt signaling pathway in human HT1080 cells assessed as fold change in phosphorylated Akt level at 0.1 uM incubated for 12 hrs by immunoblot assay (reference value: 1); assay type: cell-based; conditions: HT-1080
[13] = molecular target: Receptor tyrosine-protein kinase erbB-2 (Homo sapiens) (UniProt P04626); assay: Induction of HER2 destabilization in human MCF7 cells assessed as half life at 10 uM measured up to 24 hrs by immunoblotting assay (Rvb > 24 hrs); assay type: cell-based
Sequence of Receptor tyrosine-protein kinase erbB-2 (Homo sapiens) (P04626 whole entry): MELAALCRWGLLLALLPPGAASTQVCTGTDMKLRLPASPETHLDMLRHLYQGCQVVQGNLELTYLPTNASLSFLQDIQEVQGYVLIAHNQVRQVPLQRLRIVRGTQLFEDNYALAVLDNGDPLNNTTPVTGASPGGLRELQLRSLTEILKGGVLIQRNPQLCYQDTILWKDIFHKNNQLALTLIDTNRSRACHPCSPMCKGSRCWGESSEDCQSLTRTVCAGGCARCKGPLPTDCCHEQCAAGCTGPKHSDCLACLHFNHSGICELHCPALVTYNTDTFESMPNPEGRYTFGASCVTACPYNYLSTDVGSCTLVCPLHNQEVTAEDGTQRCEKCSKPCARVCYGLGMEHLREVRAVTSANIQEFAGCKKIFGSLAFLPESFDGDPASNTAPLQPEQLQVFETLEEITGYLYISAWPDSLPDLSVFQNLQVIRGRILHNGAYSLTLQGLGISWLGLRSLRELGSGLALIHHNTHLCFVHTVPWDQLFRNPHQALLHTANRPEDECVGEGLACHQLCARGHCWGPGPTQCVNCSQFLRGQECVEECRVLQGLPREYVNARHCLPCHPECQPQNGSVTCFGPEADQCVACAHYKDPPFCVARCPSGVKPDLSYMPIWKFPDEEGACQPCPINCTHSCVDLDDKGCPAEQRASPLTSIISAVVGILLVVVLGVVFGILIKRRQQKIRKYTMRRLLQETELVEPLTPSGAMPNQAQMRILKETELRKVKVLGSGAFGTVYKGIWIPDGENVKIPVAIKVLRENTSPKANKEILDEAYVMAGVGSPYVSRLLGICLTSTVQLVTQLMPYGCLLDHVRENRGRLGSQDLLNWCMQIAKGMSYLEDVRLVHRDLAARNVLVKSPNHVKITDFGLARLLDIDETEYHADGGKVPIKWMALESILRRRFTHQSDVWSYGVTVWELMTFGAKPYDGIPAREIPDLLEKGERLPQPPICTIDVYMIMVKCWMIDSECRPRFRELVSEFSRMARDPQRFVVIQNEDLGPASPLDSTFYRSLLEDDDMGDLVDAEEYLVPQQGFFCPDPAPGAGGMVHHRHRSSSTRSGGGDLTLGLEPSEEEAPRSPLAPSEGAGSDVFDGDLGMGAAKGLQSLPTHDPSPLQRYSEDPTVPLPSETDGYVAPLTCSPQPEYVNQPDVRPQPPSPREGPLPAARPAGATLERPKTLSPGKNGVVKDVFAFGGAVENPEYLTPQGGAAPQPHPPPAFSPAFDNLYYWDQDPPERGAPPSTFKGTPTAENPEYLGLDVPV

[14] = molecular target: T1, Serine/threonine-protein kinase AKT (Homo sapiens); assay: Inhibition of Akt signaling pathway in human HT1080 cells assessed as fold change in phosphorylated Akt level at 0.01 uM incubated for 12 hrs by immunoblot assay (reference value: 1); assay type: cell-based; conditions: HT-1080
[15] = molecular target: T1, Serine/threonine-protein kinase AKT (Homo sapiens); assay: Inhibition of Akt signaling pathway in human HT1080 cells assessed as fold change in phosphorylated Akt level at 10 uM incubated for 12 hrs by immunoblot assay (reference value: 1); assay type: cell-based; conditions: HT-1080
[16] = molecular target: T1, Serine/threonine-protein kinase AKT (Homo sapiens); assay: Inhibition of Akt signaling pathway in human HT1080 cells assessed as fold change in phosphorylated Akt level at 1 uM incubated for 12 hrs by immunoblot assay (reference value: 1); assay type: cell-based; conditions: HT-1080
[17] = molecular target: Luciferin 4-monooxygenase (Photinus pyralis) (UniProt P08659); assay: Effect on firefly luciferase activity at 100 uM incubated for 60 mins by luciferase assay system
Sequence of Luciferin 4-monooxygenase (Photinus pyralis) (P08659 whole entry): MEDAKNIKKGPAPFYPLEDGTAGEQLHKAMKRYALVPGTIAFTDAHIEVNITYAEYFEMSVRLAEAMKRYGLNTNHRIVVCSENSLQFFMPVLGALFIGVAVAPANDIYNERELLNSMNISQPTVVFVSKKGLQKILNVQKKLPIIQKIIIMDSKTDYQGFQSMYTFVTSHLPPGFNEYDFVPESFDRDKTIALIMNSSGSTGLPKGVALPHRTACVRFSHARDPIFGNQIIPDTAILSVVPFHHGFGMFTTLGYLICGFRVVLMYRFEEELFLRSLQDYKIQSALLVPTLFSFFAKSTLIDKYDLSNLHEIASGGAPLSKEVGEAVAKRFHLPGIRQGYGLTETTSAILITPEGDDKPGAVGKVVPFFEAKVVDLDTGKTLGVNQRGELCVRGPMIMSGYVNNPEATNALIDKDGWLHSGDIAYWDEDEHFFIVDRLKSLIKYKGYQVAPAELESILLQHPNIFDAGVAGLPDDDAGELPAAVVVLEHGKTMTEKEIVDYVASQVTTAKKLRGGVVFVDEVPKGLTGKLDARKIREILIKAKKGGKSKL

SMILES | fold change (FC) (HT-1080 [1]) | fold change (FC) [2] | IC50 (A549) | IC50 (A-431) | fold change (FC) [3] | IC50 (SK-MEL-28) | IC50 (PC-3) | IC50 (MCF7 [4]) | IC50 (HT-29) | IC50 (PANC-1) | IC50 (HT-1080 [7]) | fold change (FC) (MCF7 [9]) | IC50 (NEC8) | IC50 [5] | Activity (HT-1080 [6]) | Activity (MCF7 [8]) | further results
C=C(I)CC[C@H]1O[C@@]1(C)[C@@H](/C=C/[C@](C)(CC=O)CCC=C(C)C)OC(=O)C=C(C)C | 0.92 | 0.91 | > 20 µM | 20 µM | 1.15 | > 20 µM | > 20 µM | > 20 µM | > 20 µM | 5.1 µM | 18 µM |  | 11 µM | > 20 µM | inactive |  | 
COC1=C2C[C@@H](C)C[C@H](OC)[C@H](O)[C@@H](C)/C=C(\C)[C@H](OC(N)=O)[C@@H](OC)/C=C\C=C(/C)C(=O)NC(=CC1=O)C2=O [GELDANAMYCIN] |  |  |  |  |  |  |  |  |  |  |  | 1.01 |  |  |  | inactive | 
C=C1CC[C@H]2O[C@@]2(C)[C@H](OC(=O)C=C(C)C)/C=C/[C@@](C)(CCC=C(C)C)C[C@H]1O | 0.98 | 0.95 | > 20 µM | > 20 µM | 1.1 | > 20 µM | > 20 µM | > 20 µM | > 20 µM | > 20 µM | > 20 µM |  | 11 µM | > 20 µM | inactive |  | 

The remaining compounds from weak to strong by IC50 (A549), led by results:

fold change (FC) (HT-1080 [1]) | fold change (FC) [2] | IC50 (A549) | IC50 (A-431) | fold change (FC) [3] | IC50 (SK-MEL-28) | IC50 (PC-3) | IC50 (MCF7 [4]) | IC50 (HT-29) | IC50 (PANC-1) | IC50 (HT-1080 [7]) | fold change (FC) (MCF7 [9]) | SMILES | IC50 (NEC8) | IC50 [5] | Activity (HT-1080 [6]) | Activity (MCF7 [8]) | further results
0.85 | 1.05 | 11 µM | 13 µM | 1.11 | > 20 µM | > 20 µM | 12 µM | 7.8 µM | 2.7 µM | 18 µM |  | CC(C)=CCC[C@]1(C)/C=C/[C@@H](OC(=O)C=C(C)C)[C@]2(C)O[C@@H]2CC/C(C=O)=C\C1 | 12 µM | 7.5 µM | inactive |  | 
1.08 | 0.98 | 8.3 µM | 16 µM | 1.2 | > 20 µM | > 20 µM | 15 µM | 6.8 µM | 0.025 µM | > 20 µM |  | CC(C)=CCC[C@]1(C)/C=C/[C@@H](OC(=O)C=C(C)C)[C@]2(C)O[C@@H]2CC/C(CO)=C\C1 | 8.4 µM | 2.9 µM | inactive |  | 
0.8 | 0.11 | 4.4 µM | 0.89 µM | 0.08 | 0.97 µM | 4.3 µM | 3.5 µM | 2 µM | 3.5 µM | 1.2 µM | 0.98 | C=C1CC[C@H]2O[C@@]2(C)[C@H](OC(=O)C=C(C)C)/C=C/[C@@](C)(CCC=C(C)C)CC1=O | 3 µM | 4.3 µM | Active | inactive | inhibition [10]: Active; inhibition [11]: Dose-dependent effect; fold change (FC) [12]: 0.8; T1/2 [13]: 15 h; fold change (FC) [14]: 0.99; fold change (FC) [15]: 0.38; fold change (FC) [16]: 0.63; Activity [17]: inactive
